Converted amounts (≈) assume the structure as drawn.
Assays:
M. avium biofilm = details: incubation of M. avium with antibiotic; McNabe et al. 2012; cited from earlier work
M. avium MAC 104 = assay: Antimicrobial susceptibility (MIC, microdilution) of MAC 104 before and after treatment; assay type: cell-based; details: Mycobacterium avium, MAC104, read-out: MIC of M. avium to ciprofloxacin, before and after treatment
M. avium microaggregates = assay: Electron micrographs of M. avium microaggregates on epithelial cell monolayer (FIG. 1); assay type: cell-based; details: 300 μg/mL; treatment added at t=0 h; growth over 24 h
Text: FIG. 1 consists of FIGS. 1A, 1B, 1C, 1D and 1E.

M. avium = details: Inderlied et al, 1989; cited from earlier work
[1] = tested on: M. avium (MAC Strain 104); assay: M. avium mouse lung infection model over 6 weeks; assay type: in vivo, mice; details: 1 mg/kg; 3 and 6 weeks
M. avium 109 = assay: Activity against M. avium 109 in human macrophage (THP-1) model; assay type: cell-based; details: M. avium 109 in THP-1 macrophages; 20 μg/mL for 4 days
M. avium 101 = assay: Activity against M. avium 101 in human macrophage (THP-1) model; assay type: cell-based

TMP/SMX
effect on M. avium biofilm formation (M. avium biofilm): no effect on biofilm

O=C(O)c1cn(C2CC2)c2cc(N3CCNCC3)c(F)cc2c1=O [Ciprofloxacin]
MIC (M. avium MAC 104): 8 µg/mL
microaggregate formation in electron micrographs (M. avium microaggregates): much less microaggregate formation than control
minimum inhibitory concentration (MIC) (M. avium): 5 µg/mL (≈ 15.1 µM)
statistical effect on lung CFU [1]: did not have a statistically significant effect
CFU Day 4 (M. avium 109): 1.1 ± 0.4 × 10^4 CFU
statistical effect on CFU in macrophages (M. avium 101; M. avium 101 and 109, 20 μg/ml, Day 4 vs Day 0): did not have a statistically significant effect
CFU Day 0 (M. avium 101; M. avium 101 in THP-1 macrophages, initial infecting load before treatment at 20 μg/mL): 7 ± 0.2 × 10^4 CFU

CC1(C)S[C@@H]2[C@H](NC(=O)[C@H](N)c3ccccc3)C(=O)N2[C@H]1C(=O)O [ampicillin]
effect on M. avium biofilm formation (M. avium biofilm): no effect on biofilm

[H]/N=C(/N)N[C@H]1[C@H](O)[C@@H](O)[C@H](O[C@@H]2O[C@@H](C)[C@](O)(C=O)[C@H]2O[C@@H]2O[C@@H](CO)[C@H](O)[C@@H](O)[C@@H]2NC)[C@@H](N/C(N)=N\[H])[C@@H]1O [streptomycin]
effect on M. avium biofilm formation (M. avium biofilm): an increase, not decrease, in the biofilm formation

Source: US20210007985A1, “LIPOSOMAL ANTI-INFECTIVE FORMULATIONS TO INHIBIT NON-TUBERCULOUS MYCOBACTERIA (NTM) MICROAGGREGATE FORMATION AND ESTABLISHMENT OF NTM BIOFILM” (ARADIGM CORPORATION, priority 2017, published 2021)
